# Data published in PubChem BioAssay AID248 (DTP/NCI, 2004).
# Values joined by “and” are separate entries in the source; they are usually repeats but may differ in a detail not shown here. Equal entries are not always repeated. Toxic doses and inconclusive results are not listed.
# Test system: L1210 leukemia ip in BDF1 mice, survival T/C
# Test: NCI In Vivo Anticancer Drug Screen. Data for tumor model L1210 Leukemia (intraperitoneal) in B6D2F1 (BDF1) mice
# Conditions: higher = longer survival
# Procedure, shortened: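 Antitumor effect is assessed in tumor-bearing animals. Survival in the compound arm is compared with a vehicle-dosed control arm and expressed as their quotient.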
# [1] = endpoint: mean survival time, dose: 50.0 mg/kg/injection, schedule: Q04DX002 (ip), vehicle: Klucel (hydroxypropylcellulose) (HPC)
# [2] = endpoint: mean survival time, dose: 100.0 mg/kg/injection, schedule: Q01DX001 (ip), vehicle: saline
# [3] = endpoint: mean survival time, dose: 100.0 mg/kg/injection, schedule: Q04DX002 (ip), vehicle: Klucel (hydroxypropylcellulose) (HPC)
# [4] = endpoint: mean survival time, dose: 200.0 mg/kg/injection, schedule: Q01DX001 (ip), vehicle: saline
# [5] = endpoint: mean survival time, dose: 200.0 mg/kg/injection, schedule: Q04DX002 (ip), vehicle: Klucel (hydroxypropylcellulose) (HPC)
# [6] = endpoint: mean survival time, dose: 100.0 mg/kg/injection, schedule: Q04DX002 (ip), vehicle: saline
# [7] = endpoint: mean survival time, dose: 200.0 mg/kg/injection, schedule: Q04DX002 (ip), vehicle: saline
# [8] = endpoint: mean survival time, dose: 50.0 mg/kg/injection, schedule: Q01DX001 (ip), vehicle: carboxymethylcellulose (CMC)
# [9] = endpoint: mean survival time, dose: 100.0 mg/kg/injection, schedule: Q01DX001 (ip), vehicle: carboxymethylcellulose (CMC)
# [10] = endpoint: mean survival time, dose: 200.0 mg/kg/injection, schedule: Q01DX001 (ip), vehicle: carboxymethylcellulose (CMC)
# [11] = endpoint: mean survival time, dose: 400.0 mg/kg/injection, schedule: Q01DX001 (ip), vehicle: carboxymethylcellulose (CMC)
# [12] = endpoint: mean survival time, dose: 400.0 mg/kg/injection, schedule: Q04DX002 (ip), vehicle: saline
structure (smiles),measurement,setting,value
O=C1C(O)=C(c2ccccc2)C(=O)C(O)=C1c1ccccc1,T/C,"endpoint: mean survival time, dose: 25.0 mg/kg/injection, schedule: Q01DX001 (ip), vehicle: saline",95 % of control
same,T/C,"endpoint: mean survival time, dose: 25.0 mg/kg/injection, schedule: Q01DX009 (ip), vehicle: Klucel (hydroxypropylcellulose) (HPC)",100 % of control
same,T/C,"endpoint: mean survival time, dose: 50.0 mg/kg/injection, schedule: Q01DX001 (ip), vehicle: saline",104 % of control
same,T/C,"endpoint: mean survival time, dose: 50.0 mg/kg/injection, schedule: Q01DX009 (ip), vehicle: Klucel (hydroxypropylcellulose) (HPC)",105 % of control
same,T/C,[1],98 % of control
same,T/C,[2],96 % of control
same,T/C,[3],120 % of control
same,T/C,[4],104 % of control
same,T/C,[5],91 % of control
CCOC(=O)C[n+]1ccccc1C,T/C,"endpoint: mean survival time, dose: 50.0 mg/kg/injection, schedule: Q04DX002 (ip), vehicle: saline",90 % of control
same,T/C,[6],97 % of control
same,T/C,[7],93 % of control
Cc1c([N+](=O)[O-])cc(C(C)(C)C)c(OC(=O)C(Cl)(Cl)Cl)c1[N+](=O)[O-],T/C,[3],95 % of control
same,T/C,[5],91 % of control
O=C1CC(=O)c2ccccc21,T/C,"endpoint: mean survival time, dose: 100.0 mg/kg/injection, schedule: Q04DX003 (ip), vehicle: saline with Tween-80",98 % of control
same,T/C,"endpoint: mean survival time, dose: 200.0 mg/kg/injection, schedule: Q04DX003 (ip), vehicle: saline with Tween-80",92 % of control
same,T/C,"endpoint: mean survival time, dose: 400.0 mg/kg/injection, schedule: Q04DX003 (ip), vehicle: saline with Tween-80",93 % of control
O=C1C=CC2=Nc3ccccc3CCC2=C1,T/C,"endpoint: mean survival time, dose: 75.0 mg/kg/injection, schedule: Q01DX001 (ip), vehicle: steriod suspending solution",93 % of control
same,T/C,"endpoint: mean survival time, dose: 150.0 mg/kg/injection, schedule: Q01DX001 (ip), vehicle: steriod suspending solution",93 % of control
same,T/C,"endpoint: mean survival time, dose: 300.0 mg/kg/injection, schedule: Q01DX001 (ip), vehicle: steriod suspending solution",92 % of control
O=C([S][Pb]([c]1ccccc1)([c]1ccccc1)[c]1ccccc1)c1ccccc1,T/C,"endpoint: mean survival time, dose: 2.0 mg/kg/injection, schedule: Q01DX009 (ip), vehicle: Klucel (hydroxypropylcellulose) (HPC)",109 % of control
same,T/C,"endpoint: mean survival time, dose: 2.0 mg/kg/injection, schedule: Q04DX003 (ip), vehicle: Klucel (hydroxypropylcellulose) (HPC)",89 % of control
same,T/C,"endpoint: mean survival time, dose: 4.0 mg/kg/injection, schedule: Q01DX009 (ip), vehicle: Klucel (hydroxypropylcellulose) (HPC)",123 % of control
same,T/C,"endpoint: mean survival time, dose: 4.0 mg/kg/injection, schedule: Q04DX003 (ip), vehicle: Klucel (hydroxypropylcellulose) (HPC)",97 % of control
same,T/C,"endpoint: mean survival time, dose: 8.0 mg/kg/injection, schedule: Q01DX009 (ip), vehicle: Klucel (hydroxypropylcellulose) (HPC)",90 % of control
same,T/C,"endpoint: mean survival time, dose: 8.0 mg/kg/injection, schedule: Q04DX003 (ip), vehicle: Klucel (hydroxypropylcellulose) (HPC)",94 % of control and 97 % of control
same,T/C,"endpoint: mean survival time, dose: 11.0 mg/kg/injection, schedule: Q04DX003 (ip), vehicle: Klucel (hydroxypropylcellulose) (HPC)",100 % of control
Oc1cccc(C(c2ccccc2)C2CCCCC2)c1 (stereo unspecified),T/C,"endpoint: mean survival time, dose: 100.0 mg/kg/injection, schedule: Q01DX001 (ip), vehicle: saline with Tween-80",98 % of control
same,T/C,"endpoint: mean survival time, dose: 200.0 mg/kg/injection, schedule: Q01DX001 (ip), vehicle: saline with Tween-80",88 % of control
same,T/C,"endpoint: mean survival time, dose: 400.0 mg/kg/injection, schedule: Q01DX001 (ip), vehicle: saline with Tween-80",98 % of control
CC12CC3CC(C)(C1)CC(O)(C3)C2,T/C,[8],101 % of control
same,T/C,[9],98 % of control
same,T/C,[10],92 % of control
NC(=S)N/N=C/C=N/NC(N)=S,T/C,[8],97 % of control
same,T/C,[9],91 % of control
same,T/C,[10],95 % of control
same,T/C,[11],101 % of control
same,T/C,"endpoint: mean survival time, dose: 1.0 micrograms/kg/injection, schedule: Q01DX009 (ip), vehicle: carboxymethylcellulose (CMC)",107 % of control
same,T/C,"endpoint: mean survival time, dose: 5.0 micrograms/kg/injection, schedule: Q01DX009 (ip), vehicle: carboxymethylcellulose (CMC)",98 % of control
O=C(COc1ccc(Br)cc1Br)OCCCl,T/C,[2],100 % of control
same,T/C,[4],117 % of control
same,T/C,"endpoint: mean survival time, dose: 400.0 mg/kg/injection, schedule: Q01DX001 (ip), vehicle: saline",103 % of control
O=C(Nc1cccc([N+](=O)[O-])c1)c1ccc2c(c1)C(=O)OC2=O,T/C,"endpoint: mean survival time, dose: 100.0 mg/kg/injection, schedule: Q01DX009 (ip), vehicle: saline with Tween-80",95 % of control
same,T/C,"endpoint: mean survival time, dose: 200.0 mg/kg/injection, schedule: Q01DX009 (ip), vehicle: saline with Tween-80",87 % of control
same,T/C,"endpoint: mean survival time, dose: 400.0 mg/kg/injection, schedule: Q01DX009 (ip), vehicle: saline with Tween-80",93 % of control
O=C1C=C(c2ccccc2)C(c2ccccc2)C1=O (stereo unspecified),T/C,[1],106 % of control
same,T/C,[3],98 % of control
same,T/C,[5],95 % of control and 111 % of control
same,T/C,"endpoint: mean survival time, dose: 400.0 mg/kg/injection, schedule: Q04DX002 (ip), vehicle: Klucel (hydroxypropylcellulose) (HPC)",93 % of control
O=C(O)C1C(Cl)C(Cl)C1C(=O)O (stereo unspecified),T/C,"endpoint: mean survival time, dose: 75.0 mg/kg/injection, schedule: Q01DX001 (ip), vehicle: saline",104 % of control
same,T/C,"endpoint: mean survival time, dose: 150.0 mg/kg/injection, schedule: Q01DX001 (ip), vehicle: saline",101 % of control
same,T/C,"endpoint: mean survival time, dose: 300.0 mg/kg/injection, schedule: Q01DX001 (ip), vehicle: saline",96 % of control
NC(=O)c1ccc(O)cc1,T/C,[9],92 % of control
same,T/C,[10],92 % of control
same,T/C,[11],89 % of control
CC(C)(C)OC(=O)NO,T/C,"endpoint: mean survival time, dose: 100.0 mg/kg/injection, schedule: Q01DX009 (ip), vehicle: saline",103 % of control
same,T/C,[6],110 % of control
same,T/C,"endpoint: mean survival time, dose: 100.0 mg/kg/injection, schedule: Q04DX003 (ip), vehicle: saline",104 % of control
same,T/C,"endpoint: mean survival time, dose: 200.0 mg/kg/injection, schedule: Q01DX009 (ip), vehicle: saline",100 % of control
same,T/C,[7],98 % of control
same,T/C,"endpoint: mean survival time, dose: 200.0 mg/kg/injection, schedule: Q04DX003 (ip), vehicle: saline",104 % of control
same,T/C,"endpoint: mean survival time, dose: 400.0 mg/kg/injection, schedule: Q01DX009 (ip), vehicle: saline",108 % of control
same,T/C,[12],110 % of control
same,T/C,"endpoint: mean survival time, dose: 400.0 mg/kg/injection, schedule: Q04DX003 (ip), vehicle: saline",106 % of control
COc1cccc2c1C(=O)c1c(O)c3c(c(O)c1C2=O)CC(O)(C(C)=O)CC3OC1CC(N)C(O)C(C)O1 (stereo unspecified),T/C,"endpoint: mean survival time, dose: 2.0 mg/kg/injection, schedule: Q01DX001 (ip), vehicle: saline",121 % of control
same,T/C,"endpoint: mean survival time, dose: 8.0 mg/kg/injection, schedule: Q01DX009 (ip), vehicle: saline",98 % of control
same,T/C,"endpoint: mean survival time, dose: 16.0 mg/kg/injection, schedule: Q01DX001 (ip), vehicle: saline",121 % of control
same,T/C,"endpoint: mean survival time, dose: 32.0 mg/kg/injection, schedule: Q01DX001 (ip), vehicle: saline",100 % of control
same,T/C,"endpoint: median survival time, dose: 6.0 mg/kg/injection, schedule: Q01DX005 (ip), vehicle: other",117 % of control
same,T/C,"endpoint: median survival time, dose: 6.0 mg/kg/injection, schedule: Q04DX003 (ip), vehicle: water",122 % of control
same,T/C,"endpoint: median survival time, dose: 6.6 mg/kg/injection, schedule: Q01DX005 (ip), vehicle: water",115 % of control
same,T/C,"endpoint: median survival time, dose: 10.0 mg/kg/injection, schedule: Q04DX003 (ip), vehicle: water",115 % of control
same,T/C,"endpoint: median survival time, dose: 11.0 mg/kg/injection, schedule: Q01DX005 (ip), vehicle: other",117 % of control
same,T/C,"endpoint: median survival time, dose: 11.0 mg/kg/injection, schedule: Q01DX005 (ip), vehicle: water",121 % of control
same,T/C,"endpoint: median survival time, dose: 16.0 mg/kg/injection, schedule: Q01DX005 (ip), vehicle: other",117 % of control
same,T/C,"endpoint: median survival time, dose: 17.0 mg/kg/injection, schedule: Q04DX003 (ip), vehicle: water",155 % of control
same,T/C,"endpoint: median survival time, dose: 21.0 mg/kg/injection, schedule: Q01DX005 (ip), vehicle: other",122 % of control
same,T/C,"endpoint: median survival time, dose: 31.0 mg/kg/injection, schedule: Q01DX005 (ip), vehicle: other",121 % of control
same,T/C,"endpoint: median survival time, dose: 48.0 mg/kg/injection, schedule: Q04DX003 (ip), vehicle: water",115 % of control
same,T/C,"endpoint: median survival time, dose: 80.0 mg/kg/injection, schedule: Q04DX003 (ip), vehicle: water",157 % of control
same,T/C,"endpoint: median survival time, dose: 83.0 mg/kg/injection, schedule: Q01DX005 (ip), vehicle: water",100 % of control
same,T/C,"endpoint: median survival time, dose: 133.0 mg/kg/injection, schedule: Q04DX003 (ip), vehicle: water",115 % of control
same,T/C,"endpoint: median survival time, dose: 222.0 mg/kg/injection, schedule: Q04DX003 (ip), vehicle: water",89 % of control
O=C(COc1ccc(Cl)cc1)NNc1ccccc1,T/C,[6],100 % of control
same,T/C,[7],96 % of control
same,T/C,[12],114 % of control
